{
  "source": "patent US11471484B2",
  "about": "“Fullerene and its use to maintain good health and to prolong the expected lifespan of mammals” (priority 2011, dated 2022)",
  "key": {"[1]": {"system": "rats", "test": "Longevity and chronic toxicity study in rats, oral gavage", "type": "in vivo", "method": "The rats were housed one per cage and acclimated for 14 days, before dosing. Three groups of 10 rats (10 months old, weighing 495±31 g) were administered daily for one week, then weekly until the end of the second month and then every two weeks until the end of the 7th month, by gavages with 1 ml of water or olive oil or Ceo dissolved in olive oil (0.8 mg/ml), respectively. The rats were weighed before each dosing. Routine observations following official recommendations (EC Commission Directive 2004/73/EC of 29 Apr. 2004 Adapting to Technical Progress for the Twenty-Ninth Time Council Directive 67/548/EEC on the Approximation of the Laws, Regulations and Administrative Provisions Relating to the Classification, Packaging and Labeling of Dangerous Substances. O.J. No. L1522004) were made on all animals inside and outside the cage once a day throughout the study for signs of departure from normal activity, morbidity and mortality.\nThis experiment was initiated after observing that Ceo is absorbed through oral administration. To study the chronic toxicity of Ceo we designed a protocol according to the general guidelines of US food and drug administration (Chronic Toxicity Studies with Rodents in Toxicological Principles for the Safety Assessment of Food Ingredients. Redbook 2000, revised July 2007, Chapter IV.C.5.a. IV.C.5.a.) with some modifications. […]"}, "[2]": {"test": "Dissolution of C60 in vegetable oil", "type": "physicochemical", "details": "in less than one week", "text": "(§1) Free radicals are constantly formed in vivo. Some of these molecules are physiologically useful, but they can also result in pathological oxidative stress to cells and tissues. Endogenous defences include both antioxidants and repairing systems. However, excess production of free radicals, their production in inappropriate relative amounts or deficiencies in endogenous defences can have deleterious effects. Free radicals can cause oxidative damage to lipids, DNA, bio molecules, rises in the concentration of intracellular calcium, as well as activation of proteases, nucleases and protein kinases. Considerable evidence supports the view that oxidative damage involving free radicals occurs in most, if not all, human diseases. Oxidative stress is now recognized as an important contributor to the development of many human diseases including liver fibrosis, ischemia-reperfusion, atherosclerosis, several neurological disorders and age-related cancer as well as to process of ageing. Thus antioxidants and systems that can protect against oxidative stress are needed to maintain health and prolong the expected lifespan in metazoans. This has led to attempts to develop additional antioxidants to supplement the antioxidant defences of cells as potential therapeutic agents. […]"}, "[3]": {"system": "mice", "test": "Acute or sub-acute toxicity in mice", "type": "in vivo", "details": "large amounts administered", "text": "as §1"}, "[4]": {"system": "acute carbon tetrachloride intoxication in rats (free-radical-mediated liver injury)", "details": "CCl4 model, intra-peritoneal, aqueous suspension; cited from earlier work"}, "[5]": {"test": "Pharmacokinetics and biodistribution of an oily solution after oral and intra-peritoneal administration in rats", "type": "in vivo, male Wistar rats", "method": "Pharmacokinetic studies were carried out with male Wistar rats (weighing 200-220 g). Rats were housed in individual cages and maintained in an air-conditioned room (22-25° C.) on a 12 h light/dark cycle with water and food available. The rats were acclimated for 7 days and they were fasted overnight but with access to water, before treatment.\nUnder general anesthesia, a catheter was introduced into the rat right jugular vein, positioned subcutaneously with the tip in the inter-scapular region. The prepared rats were then allowed to recover for 24 h, and the blood catheters were flushed with 0.9% NaCl solution containing 20 I U/ml of heparin to avoid possible clot obstruction. Before Ceo administration, the rats were fasted overnight but with access to water. The same single dose of Ceo (4 mg/kg) was delivered orally, by a gavages needle, or intra-peritoneally to two groups of three rats. Blood (0.20 ml) was withdrawn via the canular prior to dosing (f=0) and at 15, 30, 60 min and then at 2, 4, 8, 10, 12, 24 and 48 h post-dosing. Antithrombin heparin (20 IU/ml) was added in each blood sample. After each blood collection 0.20 ml of sterile 0.9% NaCl solution were injected to the animal, to avoid hypovolemia. The rats were sacrificed 48 h after eo administration for organ collection (livers, spleens, and brains).\nConsequently, the area under the curve (AUC) is about 5 times larger when Ceo is administered by i.p. route as compared to oral route."}, "[6]": {"system": "acute carbon tetrachloride intoxication in rats (free-radical-mediated liver injury)", "test": "C60-induced protection of the liver against acute toxicity of carbon tetrachloride in rats", "type": "in vivo", "details": "CCl4 model", "text": "Carbon tetrachloride is a classical hepatotoxicant that causes rapid liver damage progressing from steatosis to centrilobular necrosis. CCU intoxication in rodents is an important model far elucidation of the mechanism of action of hepatotoxic effects such as fatty degeneration, fibrosis, hepatocellular death, and carcinogenicity. These effects are consistent with the known induced metabolic activation of CCl4 to reactive intermediates, including CCl3″ and CCl02′ free radicals, and mobilization of intracellular calcium. Kupffer cells (liver resident macrophages) participate in the mechanism of toxicity of CCl4 in vivo by release of chemoattractants for neutrophils and a series of chemical mediators (cytokines). Both expression and synthesis of these cytokines are mainly modulated through redox-sensitive reactions. […] In a previous work, the effects of C60-pretreatments on acute carbon tetrachloride intoxication in rats, a classical model for studying free-radical-mediated liver injury was reported."}, "[7]": {"system": "rats", "test": "Acute or sub-acute toxicity in rats", "type": "in vivo", "details": "large amounts administered", "text": "as §1"}},
  "data": [
    {"smiles": "c12c3c4c5c1c1c6c7c2c2c8c3c3c9c4c4c%10c5c5c1c1c6c6c%11c7c2c2c7c8c3c3c8c9c4c4c9c%10c5c5c1c1c6c6c%11c2c2c7c3c3c8c4c4c9c5c1c1c6c2c3c41", "note": "[[60]fullerene]", "values": [
      {"measurement": "longevity", "setting": "[1]; oral administration", "result": "increases significantly the longevity"},
      {"measurement": "behaviour or growth disorder", "setting": "[1]; per os 1 ml of olive oil containing 0.8 mg C60 (FIG. 1)", "result": "No behaviour or growth disorder could be observed"},
      {"measurement": "amount dissolved per g of oil", "setting": "[2]; olive oil", "result": "up to 1 mg of C60 per g"},
      {"measurement": "amount dissolved per g of oil", "setting": "[2]; soybean oil", "result": "up to 1 mg of C60 per g"},
      {"measurement": "acute or sub-acute toxicity", "setting": "[3]", "result": "no acute or sub-acute toxicity could be observed"},
      {"measurement": "day of better protection after administration", "setting": "[4]", "result": 14, "unit": "days"},
      {"measurement": "most effective dose", "setting": "[4]", "result": "about 2.5 g/kg of body-weight"},
      {"measurement": "area under the curve (AUC), i.p. route as compared to oral route", "setting": "[5]; 4 mg/kg, i.p. versus oral", "result": "about 5 times"},
      {"measurement": "distribution, brain barrier", "setting": "[5]; 4 mg/kg, oral or i.p.", "result": "can cross the brain barrier"},
      {"measurement": "absorption and elimination", "setting": "[5]; intraperitoneal or oral administration", "result": "absorbed and eliminated"},
      {"measurement": "activity in solution compared with suspension", "setting": "[6]; compared with results of Nano Letters 2005", "result": "about 100 times"},
      {"measurement": "time of effect after administration", "setting": "[6]; fullerene in solution", "result": 24, "unit": "h"},
      {"measurement": "acute or sub-acute toxicity", "setting": "[7]", "result": "no acute or sub-acute toxicity could be observed"}
    ]}
  ]
}
